Source: PMC4490784, “Compensatory induction of MYC expression by sustained CDK9 inhibition via a BRD4-dependent mechanism” (eLife, 2015)

Columns and labels:
Assay in all cases: KINOMEscan binding assay
[1] = biological target: T1, ABL1(M351T)-nonphosphorylated (Homo sapiens, UniProt P00519, M351T); settings: 10 µM i-CDK9; read-out: % Retention on Solid Support
T1 construct: purchased DiscoveRx KINOMEscan
Summary of the method: (§1)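 Panel of >400 kinases screened by active-site competition binding, compound at 1 and 10 µM.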

CAMK1G = biological target: T2, CAMK1G (Homo sapiens, UniProt Q96NX5); settings: read-out: % Retention on Solid Support
T2 construct: purchased DiscoveRx KINOMEscan
Summary of the method: as §1

CDK2 = biological target: T3, CDK2 (Homo sapiens, UniProt P24941)
T3 construct: purchased DiscoveRx KINOMEscan
Summary of the method: as §1

CDK3 = biological target: T4, CDK3 (Homo sapiens, UniProt Q00526)
T4 construct: purchased DiscoveRx KINOMEscan
T4 sequence (Q00526 whole entry): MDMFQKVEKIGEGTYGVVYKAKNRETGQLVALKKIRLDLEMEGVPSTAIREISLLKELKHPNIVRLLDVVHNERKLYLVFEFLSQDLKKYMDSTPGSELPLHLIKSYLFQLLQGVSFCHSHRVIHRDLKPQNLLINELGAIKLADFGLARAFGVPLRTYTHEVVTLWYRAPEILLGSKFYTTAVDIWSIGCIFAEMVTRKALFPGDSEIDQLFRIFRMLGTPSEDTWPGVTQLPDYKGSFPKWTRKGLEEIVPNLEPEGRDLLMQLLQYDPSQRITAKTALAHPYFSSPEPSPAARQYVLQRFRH
Summary of the method: as §1

CDK4-cyclinD1 = biological target: T5, CDK4-cyclinD1 (Homo sapiens, UniProt P11802); settings: 1 µM i-CDK9; read-out: % Retention on Solid Support
T5 construct: purchased DiscoveRx KINOMEscan
Summary of the method: as §1

CSF1R = biological target: T6, CSF1R (Homo sapiens, UniProt P07333); settings: read-out: % Retention on Solid Support
T6 construct: purchased DiscoveRx KINOMEscan
Summary of the method: as §1

CSK = biological target: T7, CSK (Homo sapiens, UniProt P41240)
T7 construct: purchased DiscoveRx KINOMEscan
T7 sequence (P41240 whole entry): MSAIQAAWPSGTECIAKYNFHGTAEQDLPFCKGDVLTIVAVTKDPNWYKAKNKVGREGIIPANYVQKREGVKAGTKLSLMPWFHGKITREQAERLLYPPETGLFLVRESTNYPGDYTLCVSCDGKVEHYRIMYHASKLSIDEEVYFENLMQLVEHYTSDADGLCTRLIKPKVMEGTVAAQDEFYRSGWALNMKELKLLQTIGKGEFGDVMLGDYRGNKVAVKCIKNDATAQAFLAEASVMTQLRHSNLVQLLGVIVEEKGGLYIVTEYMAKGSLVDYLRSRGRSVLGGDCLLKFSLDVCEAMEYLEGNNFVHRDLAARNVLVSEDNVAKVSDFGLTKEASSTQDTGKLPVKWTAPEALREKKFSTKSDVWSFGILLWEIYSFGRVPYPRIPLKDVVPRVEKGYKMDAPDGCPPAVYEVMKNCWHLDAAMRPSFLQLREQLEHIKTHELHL
Summary of the method: as §1

DDR1 = biological target: T8, DDR1 (Homo sapiens, UniProt Q08345); settings: read-out: % Retention on Solid Support
T8 construct: purchased DiscoveRx KINOMEscan
Summary of the method: as §1

EGFR(E746-A750del) = biological target: T9, EGFR(E746-A750del) (Homo sapiens, UniProt P00533, DEL746-750)
T9 construct: purchased DiscoveRx KINOMEscan
Summary of the method: as §1

[2] = biological target: T10, EGFR(L747-E749del, A750P) (Homo sapiens, UniProt P00533, A750P/DEL747-749)
T10 construct: purchased DiscoveRx KINOMEscan
Summary of the method: as §1

EPHA5 = biological target: T11, EPHA5 (Homo sapiens, UniProt P54756)
T11 construct: purchased DiscoveRx KINOMEscan
T11 sequence (P54756 25-1037): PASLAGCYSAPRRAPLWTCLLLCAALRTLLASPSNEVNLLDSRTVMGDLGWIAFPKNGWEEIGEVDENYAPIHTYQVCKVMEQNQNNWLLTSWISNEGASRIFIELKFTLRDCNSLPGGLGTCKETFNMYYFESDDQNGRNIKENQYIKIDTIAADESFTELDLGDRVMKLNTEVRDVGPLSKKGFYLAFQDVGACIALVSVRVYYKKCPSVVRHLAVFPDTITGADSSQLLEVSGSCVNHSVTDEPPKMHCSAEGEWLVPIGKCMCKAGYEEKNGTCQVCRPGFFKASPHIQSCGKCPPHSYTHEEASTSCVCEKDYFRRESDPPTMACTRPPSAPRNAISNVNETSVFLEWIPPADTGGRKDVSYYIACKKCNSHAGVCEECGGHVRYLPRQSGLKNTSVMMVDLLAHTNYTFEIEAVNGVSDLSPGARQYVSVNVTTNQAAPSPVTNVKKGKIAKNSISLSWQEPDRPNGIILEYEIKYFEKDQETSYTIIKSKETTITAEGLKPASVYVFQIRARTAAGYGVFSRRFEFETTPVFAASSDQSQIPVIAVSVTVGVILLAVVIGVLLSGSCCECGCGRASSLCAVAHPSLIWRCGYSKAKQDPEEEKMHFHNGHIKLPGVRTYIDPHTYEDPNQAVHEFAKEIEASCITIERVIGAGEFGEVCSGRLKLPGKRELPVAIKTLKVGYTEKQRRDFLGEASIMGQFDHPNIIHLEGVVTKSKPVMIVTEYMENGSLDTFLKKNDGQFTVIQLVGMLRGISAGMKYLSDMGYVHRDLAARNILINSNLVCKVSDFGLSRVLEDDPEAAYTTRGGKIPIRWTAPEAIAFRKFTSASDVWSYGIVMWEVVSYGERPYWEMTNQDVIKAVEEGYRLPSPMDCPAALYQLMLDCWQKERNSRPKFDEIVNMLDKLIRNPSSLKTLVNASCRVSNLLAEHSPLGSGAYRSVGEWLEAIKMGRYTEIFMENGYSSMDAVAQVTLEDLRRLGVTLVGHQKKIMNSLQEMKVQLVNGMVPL
Summary of the method: as §1

FLT3(D835Y) = biological target: T12, FLT3(D835Y) (Homo sapiens, UniProt P36888, D835Y); settings: read-out: % Retention on Solid Support
T12 construct: purchased DiscoveRx KINOMEscan
Summary of the method: as §1

FRK = biological target: T13, FRK (Homo sapiens, UniProt P42685); settings: read-out: % Retention on Solid Support
T13 construct: purchased DiscoveRx KINOMEscan
T13 sequence (P42685 whole entry): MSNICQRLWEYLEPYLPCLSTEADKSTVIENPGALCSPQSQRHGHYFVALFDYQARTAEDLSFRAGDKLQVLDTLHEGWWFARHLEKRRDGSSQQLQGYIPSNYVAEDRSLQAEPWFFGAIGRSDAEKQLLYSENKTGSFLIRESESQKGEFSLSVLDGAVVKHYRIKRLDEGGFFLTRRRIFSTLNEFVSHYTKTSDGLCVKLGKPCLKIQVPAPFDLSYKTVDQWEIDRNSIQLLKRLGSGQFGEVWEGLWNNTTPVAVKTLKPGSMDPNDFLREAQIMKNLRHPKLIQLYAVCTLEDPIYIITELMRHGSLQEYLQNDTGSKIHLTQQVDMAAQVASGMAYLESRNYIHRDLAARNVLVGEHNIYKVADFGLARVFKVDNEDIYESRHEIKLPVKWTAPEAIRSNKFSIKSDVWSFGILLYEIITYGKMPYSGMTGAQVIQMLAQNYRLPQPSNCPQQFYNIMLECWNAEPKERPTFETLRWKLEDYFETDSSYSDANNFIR
Summary of the method: as §1

HIPK1 = biological target: T14, HIPK1 (Homo sapiens, UniProt Q86Z02); settings: read-out: % Retention on Solid Support
T14 construct: purchased DiscoveRx KINOMEscan
Summary of the method: as §1

MARK2 = biological target: T15, MARK2 (Homo sapiens, UniProt Q7KZI7); settings: read-out: % Retention on Solid Support
T15 construct: purchased DiscoveRx KINOMEscan
Summary of the method: as §1

MLCK = biological target: T16, MLCK (Homo sapiens, UniProt Q32MK0); settings: read-out: % Retention on Solid Support
T16 construct: purchased DiscoveRx KINOMEscan
Summary of the method: as §1

PFTAIRE2 = biological target: T17, PFTAIRE2 (Homo sapiens, UniProt Q96Q40); settings: read-out: % Retention on Solid Support
T17 construct: purchased DiscoveRx KINOMEscan
Summary of the method: as §1

PIK3CG = biological target: T18, PIK3CG (Homo sapiens, UniProt P48736); settings: read-out: % Retention on Solid Support
T18 construct: purchased DiscoveRx KINOMEscan
Summary of the method: as §1

PLK4 = biological target: T19, PLK4 (Homo sapiens, UniProt O00444); settings: read-out: % Retention on Solid Support
T19 construct: purchased DiscoveRx KINOMEscan
Summary of the method: as §1

QSK = biological target: T20, QSK (Homo sapiens, UniProt Q9Y2K2)
T20 construct: purchased DiscoveRx KINOMEscan
Summary of the method: as §1

RAF1 = biological target: T21, RAF1 (Homo sapiens, UniProt P04049); settings: read-out: % Retention on Solid Support
T21 construct: purchased DiscoveRx KINOMEscan
Summary of the method: as §1

ROCK1 = biological target: T22, ROCK1 (Homo sapiens, UniProt Q13464); settings: read-out: % Retention on Solid Support
T22 construct: purchased DiscoveRx KINOMEscan
Summary of the method: as §1

ROS1 = biological target: T23, ROS1 (Homo sapiens, UniProt P08922); settings: read-out: % Retention on Solid Support
T23 construct: purchased DiscoveRx KINOMEscan
Summary of the method: as §1

SLK = biological target: T24, SLK (Homo sapiens, UniProt Q9H2G2); settings: read-out: % Retention on Solid Support
T24 construct: purchased DiscoveRx KINOMEscan
Summary of the method: as §1

SRMS = biological target: T25, SRMS (Homo sapiens, UniProt Q9H3Y6); settings: read-out: % Retention on Solid Support
T25 construct: purchased DiscoveRx KINOMEscan
Summary of the method: as §1

STK16 = biological target: T26, STK16 (Homo sapiens, UniProt O75716); settings: read-out: % Retention on Solid Support
T26 construct: purchased DiscoveRx KINOMEscan
T26 sequence (O75716 whole entry): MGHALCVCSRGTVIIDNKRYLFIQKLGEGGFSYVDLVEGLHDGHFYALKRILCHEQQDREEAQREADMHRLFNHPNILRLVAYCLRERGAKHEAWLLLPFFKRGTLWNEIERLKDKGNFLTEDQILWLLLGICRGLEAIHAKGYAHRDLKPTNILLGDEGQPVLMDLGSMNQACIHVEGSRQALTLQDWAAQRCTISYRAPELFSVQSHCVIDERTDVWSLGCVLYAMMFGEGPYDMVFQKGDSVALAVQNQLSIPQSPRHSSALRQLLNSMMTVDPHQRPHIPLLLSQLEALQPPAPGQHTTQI
Summary of the method: as §1

TAOK1 = biological target: T27, TAOK1 (Homo sapiens, UniProt Q7L7X3); settings: read-out: % Retention on Solid Support
T27 construct: purchased DiscoveRx KINOMEscan
T27 sequence (Q7L7X3 whole entry): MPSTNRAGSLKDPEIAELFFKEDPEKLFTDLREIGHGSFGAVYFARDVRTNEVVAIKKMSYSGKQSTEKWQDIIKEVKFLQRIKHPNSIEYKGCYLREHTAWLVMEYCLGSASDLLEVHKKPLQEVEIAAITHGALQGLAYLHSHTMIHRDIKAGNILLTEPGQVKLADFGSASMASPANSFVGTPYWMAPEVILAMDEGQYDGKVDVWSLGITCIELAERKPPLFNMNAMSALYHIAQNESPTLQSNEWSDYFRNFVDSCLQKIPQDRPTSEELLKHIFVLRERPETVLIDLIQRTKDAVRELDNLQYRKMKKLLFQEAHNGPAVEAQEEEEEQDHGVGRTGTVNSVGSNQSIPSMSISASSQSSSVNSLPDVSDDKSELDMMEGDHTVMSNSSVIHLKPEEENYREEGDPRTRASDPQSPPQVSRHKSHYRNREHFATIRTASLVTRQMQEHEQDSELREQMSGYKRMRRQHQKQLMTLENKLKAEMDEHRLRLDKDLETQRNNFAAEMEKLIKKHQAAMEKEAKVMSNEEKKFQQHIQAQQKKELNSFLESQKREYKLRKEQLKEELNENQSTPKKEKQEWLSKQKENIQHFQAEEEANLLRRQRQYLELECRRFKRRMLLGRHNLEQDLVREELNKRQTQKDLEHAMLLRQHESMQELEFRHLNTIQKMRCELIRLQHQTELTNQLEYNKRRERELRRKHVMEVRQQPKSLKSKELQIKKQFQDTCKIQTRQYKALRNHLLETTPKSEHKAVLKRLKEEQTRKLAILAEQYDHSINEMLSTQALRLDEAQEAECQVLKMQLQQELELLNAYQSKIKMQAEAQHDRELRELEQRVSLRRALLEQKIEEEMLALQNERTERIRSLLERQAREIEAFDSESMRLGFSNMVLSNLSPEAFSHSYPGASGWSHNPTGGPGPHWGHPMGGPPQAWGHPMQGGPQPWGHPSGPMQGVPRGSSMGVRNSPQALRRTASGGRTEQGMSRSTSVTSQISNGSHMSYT
Summary of the method: as §1

TNIK = biological target: T28, TNIK (Homo sapiens, UniProt Q9UKE5); settings: read-out: % Retention on Solid Support
T28 construct: purchased DiscoveRx KINOMEscan
T28 sequence (Q9UKE5 whole entry): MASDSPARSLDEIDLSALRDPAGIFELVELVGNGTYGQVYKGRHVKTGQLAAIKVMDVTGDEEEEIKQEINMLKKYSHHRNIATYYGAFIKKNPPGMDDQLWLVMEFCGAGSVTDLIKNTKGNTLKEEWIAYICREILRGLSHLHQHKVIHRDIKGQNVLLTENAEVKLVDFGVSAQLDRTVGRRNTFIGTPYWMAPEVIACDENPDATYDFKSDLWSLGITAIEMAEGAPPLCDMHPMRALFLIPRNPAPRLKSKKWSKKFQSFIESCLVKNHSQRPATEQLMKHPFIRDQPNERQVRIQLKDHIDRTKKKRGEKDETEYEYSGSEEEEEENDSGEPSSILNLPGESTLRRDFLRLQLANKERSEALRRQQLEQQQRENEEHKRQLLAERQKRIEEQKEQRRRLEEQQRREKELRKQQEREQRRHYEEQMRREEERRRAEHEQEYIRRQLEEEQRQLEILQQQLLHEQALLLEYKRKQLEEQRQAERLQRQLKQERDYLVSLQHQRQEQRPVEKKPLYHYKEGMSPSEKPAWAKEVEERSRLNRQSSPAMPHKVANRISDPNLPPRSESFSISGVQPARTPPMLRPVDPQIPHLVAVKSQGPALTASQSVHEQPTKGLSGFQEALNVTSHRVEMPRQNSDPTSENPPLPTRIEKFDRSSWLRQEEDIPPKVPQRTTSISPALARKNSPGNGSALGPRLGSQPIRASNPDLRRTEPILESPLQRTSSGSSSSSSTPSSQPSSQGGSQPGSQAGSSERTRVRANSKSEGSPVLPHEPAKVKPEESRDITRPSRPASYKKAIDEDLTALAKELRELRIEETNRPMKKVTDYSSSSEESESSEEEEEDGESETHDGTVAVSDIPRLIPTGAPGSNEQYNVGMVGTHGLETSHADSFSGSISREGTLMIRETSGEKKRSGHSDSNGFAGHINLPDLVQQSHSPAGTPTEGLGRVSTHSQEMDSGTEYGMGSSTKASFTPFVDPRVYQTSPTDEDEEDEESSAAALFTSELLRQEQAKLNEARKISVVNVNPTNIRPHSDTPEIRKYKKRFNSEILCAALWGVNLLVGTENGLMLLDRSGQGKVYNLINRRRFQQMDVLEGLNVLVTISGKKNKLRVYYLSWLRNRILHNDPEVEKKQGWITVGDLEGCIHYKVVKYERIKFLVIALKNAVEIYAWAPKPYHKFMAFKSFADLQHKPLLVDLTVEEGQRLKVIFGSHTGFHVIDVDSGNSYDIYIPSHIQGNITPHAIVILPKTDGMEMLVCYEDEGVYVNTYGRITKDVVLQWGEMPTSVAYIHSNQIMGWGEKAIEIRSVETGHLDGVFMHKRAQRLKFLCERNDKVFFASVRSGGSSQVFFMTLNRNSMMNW
Summary of the method: as §1

TRPM6 = biological target: T29, TRPM6 (Homo sapiens, UniProt Q9BX84); settings: 1 µM i-CDK9; read-out: % Retention on Solid Support
T29 construct: purchased DiscoveRx KINOMEscan
Summary of the method: as §1

## N[C@H]1CC[C@H](Nc2cc(-c3cccc(NCc4cccc(F)c4)n3)c(Cl)cn2)CC1 [i-CDK9, N2′-(trans-4-aminocyclohexyl)-5′-chloro-N6-(3-fluorobenzyl)-2,4′-bipyridine-2′,6-diamine]
[1]
  remaining binding at 10 µM: 100%
CAMK1G; 1 µM i-CDK9
  remaining binding at 1 µM: 92%
CAMK1G; 10 µM i-CDK9
  remaining binding at 10 µM: 100%
CDK2; 1 µM i-CDK9
  % Retention on Solid Support: 85%
CDK2; 10 µM i-CDK9
  % Retention on Solid Support: 19%
CDK3; 1 µM i-CDK9
  % Retention on Solid Support: 57%
CDK3; 10 µM i-CDK9
  % Retention on Solid Support: 16%
CDK4-cyclinD1
  remaining binding at 1 µM: 100%
CSF1R; 1 µM i-CDK9
  remaining binding at 1 µM: 59%
CSF1R; 10 µM i-CDK9
  remaining binding at 10 µM: 100%
CSK; 1 µM i-CDK9
  % Retention on Solid Support: 100%
CSK; 10 µM i-CDK9
  % Retention on Solid Support: 100%
DDR1; 1 µM i-CDK9
  remaining binding at 1 µM: 100%
DDR1; 10 µM i-CDK9
  remaining binding at 10 µM: 92%
EGFR(E746-A750del); 1 µM i-CDK9
  % Retention on Solid Support: 0%
EGFR(E746-A750del); 10 µM i-CDK9
  % Retention on Solid Support: 78%
[2]; 1 µM i-CDK9
  % Retention on Solid Support: 46%
[2]; 10 µM i-CDK9
  % Retention on Solid Support: 85%
EPHA5; 1 µM i-CDK9
  % Retention on Solid Support: 96%
EPHA5; 10 µM i-CDK9
  % Retention on Solid Support: 100%
FLT3(D835Y); 1 µM i-CDK9
  remaining binding at 1 µM: 100%
FLT3(D835Y); 10 µM i-CDK9
  remaining binding at 10 µM: 68%
FRK; 1 µM i-CDK9
  remaining binding at 1 µM: 72%
FRK; 10 µM i-CDK9
  remaining binding at 10 µM: 100%
HIPK1; 1 µM i-CDK9
  remaining binding at 1 µM: 44%
HIPK1; 10 µM i-CDK9
  remaining binding at 10 µM: 29%
MARK2; 1 µM i-CDK9
  remaining binding at 1 µM: 76%
MARK2; 10 µM i-CDK9
  remaining binding at 10 µM: 86%
MLCK; 1 µM i-CDK9
  remaining binding at 1 µM: 100%
MLCK; 10 µM i-CDK9
  remaining binding at 10 µM: 90%
PFTAIRE2; 1 µM i-CDK9
  remaining binding at 1 µM: 72%
PFTAIRE2; 10 µM i-CDK9
  remaining binding at 10 µM: 13%
PIK3CG; 1 µM i-CDK9
  remaining binding at 1 µM: 100%
PIK3CG; 10 µM i-CDK9
  remaining binding at 10 µM: 100%
PLK4; 1 µM i-CDK9
  remaining binding at 1 µM: 89%
PLK4; 10 µM i-CDK9
  remaining binding at 10 µM: 91%
QSK; 1 µM i-CDK9
  % Retention on Solid Support: 7.4%
QSK; 10 µM i-CDK9
  % Retention on Solid Support: 92%
RAF1; 1 µM i-CDK9
  remaining binding at 1 µM: 100%
RAF1; 10 µM i-CDK9
  remaining binding at 10 µM: 100%
ROCK1; 1 µM i-CDK9
  remaining binding at 1 µM: 100%
ROCK1; 10 µM i-CDK9
  remaining binding at 10 µM: 93%
ROS1; 1 µM i-CDK9
  remaining binding at 1 µM: 98%
ROS1; 10 µM i-CDK9
  remaining binding at 10 µM: 100%
SLK; 1 µM i-CDK9
  remaining binding at 1 µM: 100%
SLK; 10 µM i-CDK9
  remaining binding at 10 µM: 100%
SRMS; 1 µM i-CDK9
  remaining binding at 1 µM: 99%
SRMS; 10 µM i-CDK9
  remaining binding at 10 µM: 80%
STK16; 1 µM i-CDK9
  remaining binding at 1 µM: 95%
STK16; 10 µM i-CDK9
  remaining binding at 10 µM: 100%
TAOK1; 1 µM i-CDK9
  remaining binding at 1 µM: 51%
TAOK1; 10 µM i-CDK9
  remaining binding at 10 µM: 4%
TNIK; 1 µM i-CDK9
  remaining binding at 1 µM: 72%
TNIK; 10 µM i-CDK9
  remaining binding at 10 µM: 36%
TRPM6
  remaining binding at 1 µM: 92%
